Source: PMC9316317, “Reducing the Kidney Uptake of High Contrast CXCR4 PET Imaging Agents via Linker Modifications” (Pharmaceutics, 2022)
Where a SMILES comes first, the peptide text is derived from it. Side-chain parts run from the residue outwards. [ ]: non-standard residue; d: D form. The star is where a group is joined. DOTA = O=C(O)CN1CCN(CC(=O)O)CCN(CC(=O)*)CCN(CC(=O)O)CC1; 2Nal = N[C@@H](Cc1ccc2ccccc2c1)C(=O)O; dNMeOrn = CN[C@H](CCCN)C(=O)O; 4Amb = NCc1ccc(C(=O)O)cc1

How the values were obtained:
[1] = Ex vivo biodistribution in Daudi xenograft-bearing mice; conditions: male, NOD.Cg-Rag1tm1Mom Il2rgtm1Wjl/SzJ (NRG), mouse, iv, total radioactivity; for tissue uptake at 2 h: 2 h p.i.
Procedure: (§1) Male NOD.Cg-Rag1tm1Mom Il2rgtm1Wjl/SzJ (NRG) mice were obtained from an in-house breeding colony at the Animal Resource Centre of the BC Cancer Research Centre, Vancouver, Canada. Mice (6–10 weeks old, 25–30 g weight) were subcutaneously inoculated with 5 × 10^6 Daudi cells (100 μL; 1:1 ratio of PBS/Matrigel) on the left flank.
(§2) Additional groups of mice received 7.5 µg (0.25–0.3 mg/kg) LY2510924 as a blocking control i.p. 15 min before radiotracer injection, and euthanized 1 h p.i. Tissues were harvested, washed in PBS, blotted dry, and weighed, and radioactivity was counted on a Hidex AMG Automatic Gamma Counter. The counts were decay corrected, converted to absolute units using a calibration curve, and expressed as percent injected dose per gram of tissue (%ID/g).

[2] = test system: CXCR4-expressing Daudi xenograft mice; assay: as above
Procedure: as §1, §2

[3] = 1 h p.i. blocked with LY2510924, mean

CN1C(=O)[C@@H](Cc2ccc(O)cc2)NC(=O)CNC(=O)[C@H](Cc2ccc3ccccc3c2)NC(=O)[C@H](CCCNC(=N)N)NC(=O)[C@H]1CCCNC(=O)c1ccc(CNC(=O)CN2CCN(CC(=O)O)CCN(CC(=O)O)CCN(CC(=O)O)CC2)cc1 [[68Ga]Ga-Pentixafor, metal not drawn] (cyclo([dY][dNMeOrn]([4Amb-DOTA])R[2Nal]G))
tissue uptake at 1 h ([1]; adrenals, Adrenals uptake, 1 h p.i. blocked with LY2510924, mean): 0.38 %ID/g
tissue uptake at 1 h ([1]; adrenals, Adrenals uptake, 1 h p.i., mean): 0.34 %ID/g
tissue uptake at 2 h ([1]; adrenals, Adrenals uptake, mean): 0.18 %ID/g
tissue uptake at 1 h ([1]; blood, Blood uptake, 1 h p.i. blocked (7.5 µg LY2510924 i.p. 15 min before tracer), mean): 1.23 %ID/g
tissue uptake at 2 h ([1]; blood, Blood uptake, mean): 0.28 ± 0.04 %ID/g
tissue uptake at 1 h ([1]; bone, Bone uptake, 1 h p.i. blocked with LY2510924, mean): 0.27 %ID/g
tissue uptake at 1 h ([1]; bone, Bone uptake, 1 h p.i., mean): 0.18 %ID/g
tissue uptake at 2 h ([1]; bone, Bone uptake, mean): 0.14 %ID/g
tissue uptake at 1 h ([1]; brain, Brain uptake, 1 h p.i. blocked with LY2510924, mean): 0.03 %ID/g
tissue uptake at 1 h ([1]; brain, Brain uptake, 1 h p.i., mean): 0.03 %ID/g
tissue uptake at 2 h ([1]; brain, Brain uptake, mean): 0.01 %ID/g
tissue uptake at 1 h ([1]; fat, Fat uptake, 1 h p.i. blocked with LY2510924, mean): 0.18 %ID/g
tissue uptake at 1 h ([1]; fat, Fat uptake, 1 h p.i., mean): 0.08 %ID/g
tissue uptake at 2 h ([1]; fat, Fat uptake, mean): 0.04 %ID/g
tissue uptake at 1 h ([1]; heart, Heart uptake, 1 h p.i. blocked with LY2510924, mean): 0.47 %ID/g
tissue uptake at 1 h ([1]; heart, Heart uptake, 1 h p.i., mean): 0.36 %ID/g
tissue uptake at 2 h ([1]; heart, Heart uptake, mean): 0.13 %ID/g
tissue uptake at 1 h ([1]; intestine, Intestine uptake, 1 h p.i. blocked with LY2510924, mean): 0.59 %ID/g
tissue uptake at 2 h ([1]; intestine, Intestine uptake, mean): 0.2 %ID/g
tissue uptake at 1 h ([1]; kidney, Kidney uptake, 1 h p.i. blocked with LY2510924, mean): 3.16 %ID/g
tissue uptake at 1 h ([1]; kidney, Kidney uptake, 1 h p.i., mean): 2.78 %ID/g
tissue uptake at 2 h ([1]; kidney, Kidney uptake, mean): 1.76 ± 0.38 %ID/g
tissue uptake at 1 h ([1]; liver, Liver uptake, 1 h p.i. blocked with LY2510924, mean): 1.25 %ID/g
tissue uptake at 1 h ([1]; liver, Liver uptake, 1 h p.i., mean): 1.23 ± 0.15 %ID/g
tissue uptake at 2 h ([1]; liver, Liver uptake, mean): 0.89 ± 0.12 %ID/g
tissue uptake at 1 h ([1]; lung, Lung uptake, 1 h p.i. blocked with LY2510924, mean): 1.39 %ID/g
tissue uptake at 1 h ([1]; lung, Lung uptake, 1 h p.i., mean): 1.16 ± 0.14 %ID/g
tissue uptake at 2 h ([1]; lung, Lung uptake, mean): 0.54 ± 0.08 %ID/g
tissue uptake at 1 h ([1]; muscle, Muscle uptake, 1 h p.i. blocked with LY2510924, mean): 0.26 %ID/g
tissue uptake at 1 h ([1]; muscle, Muscle uptake, 1 h p.i., mean): 0.2 %ID/g
tissue uptake at 2 h ([1]; muscle, Muscle uptake, mean): 0.06 ± 0.02 %ID/g
tissue uptake at 1 h ([1]; pancreas, Pancreas uptake, 1 h p.i. blocked with LY2510924, mean): 0.25 %ID/g
tissue uptake at 1 h ([1]; pancreas, Pancreas uptake, 1 h p.i., mean): 0.21 %ID/g
tissue uptake at 2 h ([1]; pancreas, Pancreas uptake, mean): 0.08 %ID/g
tissue uptake at 1 h ([1]; spleen, Spleen uptake, 1 h p.i. blocked with LY2510924, mean): 0.59 %ID/g
tissue uptake at 1 h ([1]; spleen, Spleen uptake, 1 h p.i., mean): 0.63 %ID/g
tissue uptake at 2 h ([1]; spleen, Spleen uptake, mean): 0.33 %ID/g
tissue uptake at 1 h ([1]; stomach, Stomach uptake, 1 h p.i. blocked with LY2510924, mean): 0.17 %ID/g
tissue uptake at 1 h ([1]; stomach, Stomach uptake, 1 h p.i., mean): 0.13 %ID/g
tissue uptake at 2 h ([1]; stomach, Stomach uptake, mean): 0.05 %ID/g
tissue uptake at 1 h ([1]; testes, Testes uptake, 1 h p.i. blocked with LY2510924, mean): 0.55 %ID/g
tissue uptake at 1 h ([1]; testes, Testes uptake, 1 h p.i., mean): 0.39 %ID/g
tissue uptake at 2 h ([1]; testes, Testes uptake, mean): 0.13 %ID/g
tissue uptake at 1 h ([1]; tumor (Daudi xenograft), Tumor uptake (Daudi xenograft), 1 h p.i. blocked with LY2510924, mean): 0.61 %ID/g
tissue uptake at 1 h ([1]; tumor (Daudi xenograft), Tumor uptake (Daudi xenograft), 1 h p.i., mean): 6.31 ± 1.02 %ID/g
tissue uptake at 2 h ([1]; tumor (Daudi xenograft), Tumor uptake (Daudi xenograft), mean): 5.23 %ID/g
Tumor:Blood ratio [2, 3]: 0.53
Tumor:Bone ratio [2, 3]: 2.67
Tumor:Liver ratio [2, 3]: 0.50
Tumor:Lung ratio [2, 3]: 0.47
Tumor:Muscle ratio [2, 3]: 2.55
Tumor:Spleen ratio [2, 3]: 1.14
Tumor:Blood ratio ([2]; 1 h p.i., mean): 6.53
Tumor:Bone ratio ([2]; 1 h p.i., mean): 35.99
Tumor:Kidney ratio ([2]; 1 h p.i., mean): 2.29 ± 0.38
Tumor:Liver ratio ([2]; 1 h p.i., mean): 5.14
Tumor:Lung ratio ([2]; 1 h p.i., mean): 5.48
Tumor:Muscle ratio ([2]; 1 h p.i., mean): 33.25
Tumor:Spleen ratio ([2]; 1 h p.i., mean): 10.20
Tumor:Blood ratio ([2]; 2 h p.i., mean): 18.94
Tumor:Bone ratio ([2]; 2 h p.i., mean): 43.48
Tumor:Kidney ratio ([2]; 2 h p.i., mean): 3.07 ± 0.54
Tumor:Liver ratio ([2]; 2 h p.i., mean): 5.93
Tumor:Lung ratio ([2]; 2 h p.i., mean): 9.95
Tumor:Muscle ratio ([2]; 2 h p.i., mean): 95.44
Tumor:Spleen ratio ([2]; 2 h p.i., mean): 16.57
